Source: US20250214976A1, “GPR35 MODULATORS AND USES THEREOF” (Crossignal Therapeutics, Inc., priority 2022, published 2025)

Target: T1, human GPR35 (Homo sapiens, UniProt Q9HC97)
T1 construct: expressed in transfected cells; host or cells: HEK293
Assay: Luciferase Reporter Assay (YAP responsive element) in HEK293 cells stably transfected with human GPR35
Format: cell-based
Conditions: overnight incubation
Experimental: HEK293 cells stably transfected with human GPR35 were maintained in Dulbecco's Modified Eagle Medium (DMEM) supplemented with 10% FBS and 300 μg/mL Zeocin and 200 μg/mL Hygromycin at 37° C., 10% CO2. On Day 1, cells were plated in poly-D-lysine coated 96-well tissue culture plate in regular growth medium (DMEM/10% FBS/300 μg/mL Zeocin/200 μg/mL Hygromycin. On the next day, luciferase reporter plasmid DNA with YAP responsive element was transfected into cells using lipofectamine 2000 (Invitrogen) following manufacture's protocol. After transfection for 6 hr., cells were treated with testing compounds in fasting DMEM medium (phenol red free, FBS free) at varying compound concentrations ranging from 10 μM to […] in a 3-fold serial diluted fashion. After an overnight incubation, the luciferase activities were measured with SteadyLite Plus Kit (PerkinElmer) according to manufacturer's protocol. IC50 was determined by fitting the dose-response data to a four-parameter logistic curve using GraphPad Prism.
The symbol “+” indicates IC50 is greater than […]. “++” indicates IC50>100 nM but ≤[…]. “+++” indicates IC50≤100 nM.

T1 sequence (Q9HC97 whole entry): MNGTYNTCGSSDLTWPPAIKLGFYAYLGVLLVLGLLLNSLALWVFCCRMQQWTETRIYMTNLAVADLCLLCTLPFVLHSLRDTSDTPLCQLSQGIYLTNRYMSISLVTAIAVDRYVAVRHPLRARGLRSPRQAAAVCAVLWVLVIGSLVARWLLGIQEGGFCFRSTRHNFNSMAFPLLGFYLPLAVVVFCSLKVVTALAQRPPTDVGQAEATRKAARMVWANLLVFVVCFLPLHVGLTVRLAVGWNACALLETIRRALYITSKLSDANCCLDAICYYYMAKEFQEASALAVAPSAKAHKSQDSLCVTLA

IC50 [nM] | SMILES
> 1000 | C[C@H](Oc1ccc(NC(=O)c2coc3cc(-c4nnn[nH]4)c(F)cc23)cc1)c1ccc(F)cc1Cl (single isomer, unassigned) [Compound 1-25]
> 1000 | C[C@@H](Oc1ccc(NC(=O)c2coc3cc(-c4nnn[nH]4)c(F)cc23)cc1)c1ccc(F)cc1Cl (single isomer, unassigned) [Compound 1-26]
≤ 100 | C[C@H](Oc1ccc(NC(=O)c2coc3cc(-c4nnn[nH]4)c(F)cc23)cc1F)C(F)(F)F (single isomer, unassigned) [Compound 1-30]
100 to 1000 | C[C@@H](Oc1ccc(NC(=O)c2coc3cc(-c4nnn[nH]4)c(F)cc23)cc1F)C(F)(F)F (single isomer, unassigned) [Compound 1-31]
≤ 100 | O=C(Nc1ccc(O[C@H]2CCC(F)(F)C2)c(F)c1)c1coc2cc(-c3nnn[nH]3)c(F)cc12 (single isomer, unassigned) [Compound 1-36]
≤ 100 | O=C(Nc1ccc(O[C@@H]2CCC(F)(F)C2)c(F)c1)c1coc2cc(-c3nnn[nH]3)c(F)cc12 (single isomer, unassigned) [Compound 1-37]
≤ 100 | O=C(Nc1ccc(OC2CCCC2)c(F)c1)c1coc2cc(-c3nnn[nH]3)ccc12 [Compound 1-1, N-(4-(cyclopentyloxy)-3-fluorophenyl)-6-(1H-tetrazol-5-yl)benzofuran-3-carboxamide]
> 1000 | O=C(Nc1ccc(OCc2ccc(F)cc2Cl)c(F)c1)c1coc2cc(OCc3nnn[nH]3)ccc12 [Compound 1-5, 6-((1H-tetrazol-5-yl)methoxy)-N-(4-((2-chloro-4-fluorobenzyl)oxy)-3-fluorophenyl)benzofuran-3-carboxamide]
100 to 1000 | O=C(Nc1ccc(OCc2ccc(F)cc2Cl)c(F)c1)c1coc2cc(-c3nnn[nH]3)ccc12 [Compound 1-6, N-(4-((2-chloro-4-fluorobenzyl)oxy)-3-fluorophenyl)-6-(1H-tetrazol-5-yl)benzofuran-3-carboxamide]
> 1000 | O=C(Nc1ccc(OC2CCCC2)c(F)c1)c1coc2c(-c3nnn[nH]3)cccc12 [Compound 1-7, N-(4-(cyclopentyloxy)-3-fluorophenyl)-7-(1H-tetrazol-5-yl)benzofuran-3-carboxamide]
> 1000 | O=C(Nc1ccc(OCc2ccc(F)cc2Cl)cc1)c1coc2cc(OCc3nnn[nH]3)ccc12 [Compound 1-8, 6-((1H-tetrazol-5-yl)methoxy)-N-(4-((2-chloro-4-fluorobenzyl)oxy)phenyl)benzofuran-3-carboxamide]
> 1000 | O=C(Nc1ccc(OC2CCCC2)c(F)c1F)c1coc2cc(-c3nnn[nH]3)ccc12 [Compound 1-9, N-(4-(cyclopentyloxy)-2,3-difluorophenyl)-6-(1H-tetrazol-5-yl)benzofuran-3-carboxamide]
≤ 100 | O=C(Nc1cc(F)c(OC2CCCC2)cc1F)c1coc2cc(-c3nnn[nH]3)ccc12 [Compound 1-10, N-(4-(cyclopentyloxy)-2,5-difluorophenyl)-6-(1H-tetrazol-5-yl)benzofuran-3-carboxamide]
> 1000 | O=C(Nc1ccc(OCc2ccc(F)cc2Cl)c(F)c1)c1coc2c(-c3nnn[nH]3)cccc12 [Compound 1-11, N-(4-((2-chloro-4-fluorobenzyl)oxy)-3-fluorophenyl)-7-(1H-tetrazol-5-yl)benzofuran-3-carboxamide]
> 1000 | O=C(Nc1ccc(F)c(F)c1OC1CCCC1)c1coc2cc(-c3nnn[nH]3)ccc12 [Compound 1-12, N-(2-(cyclopentyloxy)-3,4-difluorophenyl)-6-(1H-tetrazol-5-yl)benzofuran-3-carboxamide]
≤ 100 | O=C(Nc1ccc(OCc2ccc(F)cc2Cl)cc1)c1coc2cc(-c3nnn[nH]3)ccc12 [Compound 1-13, N-(4-((2-chloro-4-fluorobenzyl)oxy)phenyl)-6-(1H-tetrazol-5-yl)benzofuran-3-carboxamide]

IC50 [nM] | SMILES
≤ 100 | O=C(Nc1ccc(C2CCCC2)c(F)c1)c1coc2cc(-c3nnn[nH]3)ccc12 [Compound 1-14, N-(4-cyclopentyl-3-fluorophenyl)-6-(1H-tetrazol-5-yl)benzofuran-3-carboxamide]
≤ 100 | CC1(Oc2ccc(NC(=O)c3coc4cc(-c5nnn[nH]5)ccc34)cc2F)CC1 [Compound 1-15, N-(3-fluoro-4-(1-methylcyclopropoxy)phenyl)-6-(1H-tetrazol-5-yl)benzofuran-3-carboxamide]
≤ 100 | CC1(Oc2ccc(NC(=O)c3coc4cc(-c5nnn[nH]5)c(F)cc34)cc2F)CC1 [Compound 1-16, 5-fluoro-N-(3-fluoro-4-(1-methylcyclopropoxy)phenyl)-6-(1H-tetrazol-5-yl)benzofuran-3-carboxamide]
≤ 100 | O=C(Nc1ccc(C2CCCC2)c(F)c1)c1coc2cc(-c3nnn[nH]3)c(F)cc12 [Compound 1-17, N-(4-cyclopentyl-3-fluorophenyl)-5-fluoro-6-(1H-tetrazol-5-yl)benzofuran-3-carboxamide]
≤ 100 | O=C(Nc1ccc(OCc2ccc(F)cc2Cl)cc1)c1coc2cc(-c3nnn[nH]3)c(F)cc12 [Compound 1-18, N-(4-((2-chloro-4-fluorobenzyl)oxy)phenyl)-5-fluoro-6-(1H-tetrazol-5-yl)benzofuran-3-carboxamide]
100 to 1000 | O=C(Nc1ccc(OCc2ccc(Cl)cc2Cl)cc1)c1coc2cc(-c3nnn[nH]3)c(F)cc12 [Compound 1-19, N-(4-((2,4-dichlorobenzyl)oxy)phenyl)-5-fluoro-6-(1H-tetrazol-5-yl)benzofuran-3-carboxamide]
≤ 100 | O=C(Nc1ccc(OC2CCCC2)c(F)c1)c1coc2cc(-c3nnn[nH]3)c(F)cc12 [Compound 1-20, N-(4-(cyclopentyloxy)-3-fluorophenyl)-5-fluoro-6-(1H-tetrazol-5-yl)benzofuran-3-carboxamide]
100 to 1000 | O=C(Nc1ccc(O[C@H]2CCOC2)c(F)c1)c1coc2cc(-c3nnn[nH]3)c(F)cc12 [Compound 1-21, (S)-5-fluoro-N-(3-fluoro-4-((tetrahydrofuran-3-yl)oxy)phenyl)-6-(1H-tetrazol-5-yl)benzofuran-3-carboxamide]
> 1000 | O=C(Nc1ccc(O[C@@H]2CCOC2)c(F)c1)c1coc2cc(-c3nnn[nH]3)c(F)cc12 [Compound 1-22, (R)-5-fluoro-N-(3-fluoro-4-((tetrahydrofuran-3-yl)oxy)phenyl)-6-(1H-tetrazol-5-yl)benzofuran-3-carboxamide]
> 1000 | NC(=O)c1cc2occ(C(=O)Nc3ccc(OCc4ccc(F)cc4Cl)cc3)c2cc1F [Compound 1-23, N3-(4-((2-chloro-4-fluorobenzyl)oxy)phenyl)-5-fluorobenzofuran-3,6-dicarboxamide]
≤ 100 | O=C(Nc1ccc(OCc2ccc(F)cc2Cl)cc1)c1coc2cc(-c3noc(=O)[nH]3)c(F)cc12 [Compound 1-24, N-(4-((2-chloro-4-fluorobenzyl)oxy)phenyl)-5-fluoro-6-(5-oxo-4,5-dihydro-1,2,4-oxadiazol-3-yl)benzofuran-3-carboxamide]
100 to 1000 | O=C(Nc1ccc(OC2COC2)c(F)c1)c1coc2cc(-c3nnn[nH]3)c(F)cc12 [Compound 1-28, 5-fluoro-N-(3-fluoro-4-(oxetan-3-yloxy)phenyl)-6-(1H-tetrazol-5-yl)benzofuran-3-carboxamide]
> 1000 | O=C(Nc1ccc(OCc2ccc(F)cc2Cl)cc1)c1coc2cc(Oc3nnn[nH]3)ccc12 [Compound 1-29, 6-((1H-tetrazol-5-yl)oxy)-N-(4-((2-chloro-4-fluorobenzyl)oxy)phenyl)benzofuran-3-carboxamide]
100 to 1000 | O=C(Nc1ccc(N2CCC[C@H]2C(F)(F)F)c(F)c1)c1coc2cc(-c3nnn[nH]3)c(F)cc12 [Compound 1-32, (S)-5-fluoro-N-(3-fluoro-4-(2-(trifluoromethyl)pyrrolidin-1-yl)phenyl)-6-(1H-tetrazol-5-yl)benzofuran-3-carboxamide]
100 to 1000 | O=C(Nc1ccc(N2CCC[C@@H]2C(F)(F)F)c(F)c1)c1coc2cc(-c3nnn[nH]3)c(F)cc12 [Compound 1-33, (R)-5-fluoro-N-(3-fluoro-4-(2-(trifluoromethyl)pyrrolidin-1-yl)phenyl)-6-(1H-tetrazol-5-yl)benzofuran-3-carboxamide]
≤ 100 | O=C(Nc1ccc(N2CCC(F)(F)C2)c(F)c1)c1coc2cc(-c3nnn[nH]3)c(F)cc12 [Compound 1-34, N-(4-(3,3-difluoropyrrolidin-1-yl)-3-fluorophenyl)-5-fluoro-6-(1H-tetrazol-5-yl)benzofuran-3-carboxamide]

SMILES | IC50 [nM]
O=C(Nc1ccc(OC2CCC2)c(F)c1)c1coc2cc(-c3nnn[nH]3)ccc12 [Compound 1-2, N-(4-cyclobutoxy-3-fluorophenyl)-6-(1H-tetrazol-5-yl)benzofuran-3-carboxamide] | ≤ 100
O=C(O)c1ccc2c(C(=O)Nc3ccc(OC4CCC4)c(F)c3)coc2c1 [Compound 1-3, 3-((4-cyclobutoxy-3-fluorophenyl)carbamoyl)benzofuran-6-carboxylic acid] | > 1000
O=C(Nc1ccc(OC2CCC2)c(F)c1)c1coc2cc(OCc3nnn[nH]3)ccc12 [Compound 1-4, 6-((1H-tetrazol-5-yl)methoxy)-N-(4-cyclobutoxy-3-fluorophenyl)benzofuran-3-carboxamide] | > 1000
O=C(Nc1ccc(OC2CC(F)(F)C2)c(F)c1)c1coc2cc(-c3nnn[nH]3)c(F)cc12 [Compound 1-27, N-(4-(3,3-difluorocyclobutoxy)-3-fluorophenyl)-5-fluoro-6-(1H-tetrazol-5-yl)benzofuran-3-carboxamide] | 100 to 1000
